From patent US20250144067A1, “PERSONALIZED STARVATION THERAPY FOR CANCER” (Faeth Therapeutics, Inc., priority 2021, published 2025)
Counter-ions that a name gives are not always drawn. Like-named read-outs stand apart in the source and are kept apart here.

Experiments:
[1] = system: NCI-H292 lung cancer cells; test: FDA drug screening, complete media vs cholesterol-free media without statin (TABLE 1); type: cell-based, human
[2] = system: NCI-H292 lung cancer cells; test: FDA drug screening, complete media vs cholesterol-free media with simvastatin (TABLE 2); type: cell-based, human
[3] = Complete minus Cholesterol-free, […]
[4] = NCI-H292 cells, cholesterol-free media without statin, FDA drug library screen
[5] = NCI-H292 cells, complete media, FDA drug library screen
[6] = NCI-H292 cells, cholesterol-free media with simvastatin 0.04 μM, FDA drug library screen (TABLE 2)
[7] = NCI-H292 cells, complete media, FDA drug library screen (TABLE 2)
[8] = complete media minus cholesterol-free media + simvastatin (0.04 μM), […]
[9] = complete vs cholesterol-free media, >0 enhanced anti-cancer activity, about 0 neutral, <0 antagonist
[10] = NCI-H292 cells, FDA drug library screen, cholesterol-free media with simvastatin 0.04 μM
[11] = NCI-H292 cells, FDA drug library screen, complete media
[12] = complete media vs cholesterol-free media + simvastatin (0.04 μM), >0 enhanced anti-cancer activity, about 0 neutral, <0 antagonist
[13] = complete media minus cholesterol-free media + simvastatin (0.04 μM), >0 enhanced anti-cancer activity, about 0 neutral, <0 antagonist
[14] = Complete minus Cholesterol-free, >0 enhanced anti-cancer activity, about 0 neutral, <0 antagonist
[15] = complete vs cholesterol-free media, […]
[16] = complete media minus cholesterol-free media + simvastatin, >0 enhanced anti-cancer activity, about 0 neutral, <0 antagonist
[17] = NCI-H292 cells, FDA library drug in cholesterol-free media with simvastatin 0.04 μM
[18] = NCI-H292 cells, FDA library drug in complete media

For `CC[C@@]1(O)C[C@H](O[C@H]2C[C@H](N(C)C)[C@H](O[C@H]3C[C@H](O)[C@H](O[C@H]4CCC(=O)[C@H](C)O4)[C@H](C)O3)[C@H](C)O2)c2c(cc3c(c2O)C(=O)c2c(O)cccc2C3=O)[C@H]1C(=O)OC.Cl` [Aclacinomycin A hydrochloride], the Difference [1, 3] was −0.01, the Cholesterol-free [1, 4] was 0.01335 and the Complete [1, 5] was 0.007534. The “Cholesterol-free media + simvastatin (0.04 μM)” value [2, 6] was 0.01688, the “Complete Media” value [2, 7] was 0.01023 and the Difference [2, 8] was −0.01.
For `O=C(O[C@H]1C[N+]2(CCCOc3ccccc3)CCC1CC2)C(O)(c1cccs1)c1cccs1.[Br-]` [Aclidinium (Bromide)], the Cholesterol-free [1] was 1.253, the Complete [1] was 0.9873 and the Difference [1] was −0.27. The “Cholesterol-free media + simvastatin (0.04 μM)” value [2] was 0.8781, the “Complete Media” value [2] was 0.7357 and the Difference [2] was −0.14.
`Nc1nc2c(ncn2COCCO)c(=O)[nH]1` [Acyclovir] showed a Cholesterol-free [1, 4] of 0.843, a Complete [1, 5] of 1.434 and a Difference [1, 9] of 0.59. The “Cholesterol-free media + simvastatin (0.04 μM)” value [2, 10] was 1.866, the “Complete Media” value [2, 11] was 1.782 and the Difference [2, 12] was −0.08.
Work on `COc1ccc(-c2ccc3cc(C(=O)O)ccc3c2)cc1C12CC3CC(CC(C3)C1)C2` [Adapalene] yielded a Cholesterol-free [1, 4] of 0.6976, a Complete [1, 5] of 1.022 and a Difference [1, 9] of 0.32. For the same compound, the “Cholesterol-free media + simvastatin (0.04 μM)” value [2, 6] was 0.9237, the “Complete Media” value [2, 7] was 0.9286 and the Difference [2, 13] was 0.00.
`CC(C)(C)C(=O)OCOP(=O)(COCCn1cnc2c(N)ncnc21)OCOC(=O)C(C)(C)C` [Adefovir dipivoxil] showed a Difference [1, 14] of −0.04, a Cholesterol-free [1, 4] of 0.1811 and a Complete [1, 5] of 0.1375. The “Cholesterol-free media + simvastatin (0.04 μM)” value [2, 6] was 0.2485, the “Complete Media” value [2, 7] was 0.1986 and the Difference [2, 13] was −0.05.
Compound `Nc1ncnc2c1ncn2CCOCP(=O)(O)O` [Adefovir] has a Cholesterol-free [1, 4] of 0.8102, a Complete [1, 5] of 1.199 and a Difference [1, 15] of 0.39. The “Cholesterol-free media + simvastatin (0.04 μM)” value [2, 6] was 0.9937, the “Complete Media” value [2, 7] was 0.9462 and the Difference [2, 8] was −0.05.
Compound `Nc1ncnc2[nH]cnc12` [Adenine] has a Difference ([1]; Complete minus Cholesterol-free, greater than 0 enhanced anti-cancer activity, about 0 neutral, below 0 antagonists) of −0.97, a Cholesterol-free ([1]; NCI-H292 cells in cholesterol-free media without statin) of 1.858 and a Complete ([1]; NCI-H292 cells in complete media) of 0.8914. The “Cholesterol-free media + simvastatin (0.04 μM)” value [2, 10] was 1.106, the “Complete Media” value [2, 11] was 1.256 and the Difference [2, 16] was 0.15.
With `Nc1ncnc2c1ncn2[C@@H]1O[C@H](CO)[C@@H](O)[C@H]1O` [Adenosine] the Difference ([1]; Complete minus Cholesterol-free, greater than 0 enhanced anti-cancer activity, about 0 neutral, below 0 antagonist) was −0.14, the Complete [1, 11] was 0.8055 and the “Cholesterol-free media + simvastatin (0.04 μM)” value [2, 17] was 1.888. For the same compound, the “Complete Media” value [2, 18] was 1.6 and the Difference [2, 12] was −0.29.
Work on `CCN(CC)CCOC(=O)C(c1ccccc1)c1ccccc1` [Adiphenine (hydrochloride)] yielded a Difference [1, 14] of −0.20, a Cholesterol-free ([1]; NCI-H292 cells, cholesterol-free media without statin) of 1.088 and a Complete ([1]; NCI-H292 cells, complete media) of 0.8864. The “Cholesterol-free media + simvastatin (0.04 μM)” value [2, 17] was 1.255, the “Complete Media” value [2, 18] was 0.9527 and the Difference [2, 12] was −0.30.
`CN(C)C/C=C/C(=O)Nc1cc2c(Nc3ccc(F)c(Cl)c3)ncnc2cc1O[C@H]1CCOC1` [Afatinib] was tested, and the Difference [1, 14] was 0.00, the Cholesterol-free [1, 4] was 0.02665 and the Complete [1, 5] was 0.0309. The “Cholesterol-free media + simvastatin (0.04 μM)” value ([2]; NCI-H292 cells, cholesterol-free media with simvastatin 0.04 μM, cell growth value in FDA drug screen) was 0.1756, the “Complete Media” value ([2]; NCI-H292 cells, complete media, cell growth value in FDA drug screen) was 0.2197 and the Difference [2, 16] was 0.04.
In the case of `Cc1ccccc1-n1c(CF)nc2ccc(N)cc2c1=O` [Afloqualone], the Difference [1, 3] is reported as 0.04, the Cholesterol-free [1, 4] is reported as 1.063 and the Complete [1, 5] is reported as 1.104. The “Cholesterol-free media + simvastatin (0.04 μM)” value [2, 10] was 1.16, the “Complete Media” value [2, 11] was 1.332 and the Difference ([2]; complete media minus cholesterol-free media + simvastatin, […]) was 0.17.
With `O=C(CNC(=O)c1ccc(C2=NOC(c3cc(Cl)cc(C(F)(F)F)c3)(C(F)(F)F)C2)c2ccccc12)NCC(F)(F)F` (stereo not shown) [Afoxolaner] the Cholesterol-free [1, 4] was 1.008, the Complete [1, 5] was 1.19 and the Difference [1, 15] was 0.18. For the same compound, the “Cholesterol-free media + simvastatin (0.04 μM)” value [2, 10] was 2.42 and the Difference [2, 8] was −1.05.
In the case of `COc1ccc2cccc(CCNC(C)=O)c2c1` [Agomelatine (hydrochloride)], the Difference [1, 14] is reported as 0.00, the Cholesterol-free [1, 4] is reported as 0.7477 and the Complete [1, 5] is reported as 0.7483. The “Cholesterol-free media + simvastatin (0.04 μM)” value [2, 17] was 1.126, the “Complete Media” value [2, 18] was 0.7656 and the Difference [2, 12] was −0.36.
Compound `COc1ccc2cccc(CCNC(C)=O)c2c1` [Agomelatine] has a Cholesterol-free [1, 4] of 0.6611, a Complete [1, 5] of 0.8138 and a Difference [1, 9] of 0.15. The “Cholesterol-free media + simvastatin (0.04 μM)” value [2, 17] was 1.184, the “Complete Media” value [2, 18] was 0.8914 and the Difference [2, 12] was −0.29.
